Test results as given in patent publication US9132198B2, “Mitochondrial penetrating peptides as carriers for anticancer compounds” (priority 2011, dated 2015).
Entries after “also recorded” stand apart in the source; their conditions may differ. Non-standard residues stand in square brackets, D forms with d. Residues, ends and D or L forms follow the SMILES beside them. *: point of attachment. Chlorambucil = O=C(CCCc1ccc(N(CCCl)CCCl)cc1)*; Cha = N[C@@H](CC1CCCCC1)C(=O)O

Legend:
[1] = test system: red blood cells (healthy donors); experiment: Hemolysis assay; type: cell-based, human; conditions: RBCs of healthy donors, at concentrations used (LC25, LC50)
Protocol: Red blood cells obtained during Ficoll separation of healthy donor peripheral blood was used for this assay. Cells were washed with PBS until the supernatant was clear. Peptide solutions were made in Iscove's media and a 1:2 dilution was made across a 96-well plate. To each well, 2 μl, of red blood cells were added, mixed and then incubated for 1 hour at 37° C. with 5% CO2. For 100% lysis, 0.1% Triton X-100 was added to three wells and for 0% lysis, cells from three wells without peptide were used. Plates were spun at 1000×g for 10 min and 50 μL of supernatant was then transferred to a new plate, mixed with 50 μL of PBS and read at 415 nm.

HL60 cells [2] = experiment: Analysis of toxicity, CCK-8 viability, leukemia panel: HL60; conditions: for LC25 dose: HL60 cells
A2780 wildtype cells = experiment: Annexin V apoptosis assay, A2780 wild-type; type: cell-based; conditions: A2780 wild-type line
M2 (OCI-M2) cells = experiment: Analysis of toxicity, CCK-8 viability, leukemia panel: M2
HL60 cells [3] = experiment: Quantitative real-time PCR array of DNA damage signaling genes; type: cell-based, human; conditions: for DDIT3/GADD153 change in expression: vs untreated cells
[4] = test system: 17.7 kb nuclear DNA segment (β-globin gene) in HL60 cells; experiment: DNA lesion frequency by quantitative PCR, nuclear DNA; type: cell-based; conditions: HL60, Cbl 150 μM or mt-Cbl 3 μM, 2 hr
Protocol: (§1) A total of 5×10^6 HL60 cells were treated with Cbl (150 μM) or mt-Cbl (3 μM) for 2 hr. DNA was isolated from frozen cell pellets with the QIAGEN Genomic Tip and Genomic DNA Buffer Set Kit (QIAGEN) and quantified using the PicoGreen dye (Invitrogen). Quantitative amplification of the 8.9 kb mitochondrial segment and the 17.7 kb β-globin target sequence was performed using the GeneAmp XL PCR kit (Perkin-Elmer) as described previously^31. Lesion frequency at a given dose, D, was calculated as D=−In AD/AC, where AD is the amplification at the dose, and AC is the level of amplification in nondamaged controls.

LY17 cells = experiment: Analysis of toxicity, CCK-8 viability, leukemia panel: LY17; conditions: read-out: LC50
K562 cells = experiment: Analysis of toxicity, CCK-8 viability, leukemia panel: K562
[5] = test system: A2780 Cbl-resistant cells; experiment: Annexin V apoptosis assay, A2780 Cbl-resistant; type: cell-based; conditions: A2780 Cbl-resistant line
HeLa cells [6] = experiment: Mitochondrial membrane potential (JC-1, flow cytometry); type: cell-based; conditions: 1 hour treatment
Protocol: HeLa cells were seeded at 50,000 cells per well 24 hours prior to experiment. CLL patient samples, PBSCs and healthy donor B cells were seeded at 200,000 cells per well in triplicate in a 24-well plate in Iscove's media. Cells were then incubated with 2 μM of 5,5′,6,6′-tetrachloro-1,1′,3,3′-tetraethylbenzimidazolylcarbocyanine iodide (JC-1, Invitrogen, Carlsbad) for 20 minutes at 37° C. Each sample was then washed twice with 1 mL PBS and resuspended in 300 μL PBS prior to being read on a BD FACS Canto. Samples were excited at 488 nm and emission was collected at 526 nm (green) and 595 nm (red). To obtain the mitochondrial membrane potential (red/green), emission from the red channel was divided by emission from the green channel. For membrane depolarization studies, HeLa cells were treated with Cbl or MPP-Cbl for 1 hour in OPTI-MEM (Invitrogen, Carlsbad) prior to incubation with JC-1. Cells were washed with PBS, trypsinized and analyzed as above.

AML2 (OCI-AML2) cells = experiment: Analysis of toxicity, CCK-8 viability, leukemia panel: AML2; conditions: Homo sapiens, OCI-AML2, read-out: LC50
U937 cells = experiment: Analysis of toxicity, CCK-8 viability, leukemia panel: U937; conditions: Homo sapiens, U-937, read-out: LC50
[7] = test system: 8.9 kb mitochondrial DNA segment in HL60 cells; experiment: DNA lesion frequency by quantitative PCR, mitochondrial DNA; type: cell-based; conditions: HL60, Cbl 150 μM or mt-Cbl 3 μM, 2 hr
Protocol: as §1

DAUDI cells = experiment: Analysis of toxicity, CCK-8 viability, leukemia panel: DAUDI; conditions: Homo sapiens, read-out: LC50
HL60 cells [8] = experiment: Western blots of GADD45G pathway effector proteins (p38, JNK); type: cell-based; conditions: HL60, immunoblotting
Protocol: Leukemia cells were cultured as above and were washed twice with PBS prior to lysis (10 mM Tris, 200 mM NaCl, 1 mM EDTA (pH 7.4), 1 mM PMSF, 0.5% NP-40, 1% Triton X-100, 1× Protease Inhibitor Cocktail (Bioshop, Burlington, ON)) at 4° C., 30 min. Cells were then centrifuged at 1,200 rcf, 4° C., 5 min and protein levels were quantified using bicinchoninic acid (BCA) assay (Pierce, Rockford). 15 μg of total protein was diluted in 8× sample buffer and heated to 42° C. for 5 min prior to loading on 15% gel. Gels were run at 100 V for 1 h, and then proteins were transferred onto nitrocellulose membrane at 100 V for 40 min. Membranes were blocked with 5% skim milk for 1 hour and then probed with primary antibody according to manufacturer's instructions (1:500 BclXL antibody [Abcam, Cambridge, Mass.], 1:2000 β-actin antibody [Abcam], 1:1000 phospho INK [Abcam], 1:1000 phospho p38 [Abcam], 1:1000 GADD45G [Santa Cruz Biotechnology, Santa Cruz, Calif.], 1:1000 PPP1R15A [Santa Cruz Biotechnology], 1:1000 DNA Ligase III [Santa Cruz Biotechnology], 1:1000 p21 [Santa Cruz Biotechnology], and 1:1000 DDIT3 [Cell Signaling Technology, Beverly, Mass.]). Membranes were then washed and incubated with 1:5000 donkey anti-mouse or goat anti-rabbit IgG-HRP secondary antibody for 1 hr prior to ECL chemiluminescence detection (GE Amersham).

pBR322DNA = experiment: Crosslinking of isolated DNA; type: biochemical; conditions: 2-200 μM
Protocol: Crosslinking of isolated pBR322DNA was determined from a modification of a published method.^30 Briefly, pBR322DNA was incubated with compounds at concentrations and times indicated in 25 mM triethanolamine (pH 7.2) and 1 mM EDTA. Reactions were terminated by the addition of 50 mM EDTA and 150 μg/ml excess short oligonucleotide DNA. Samples were denatured at 95° C. in denaturation buffer (30% DMSO, 1 mM EDTA, bromophenol blue, xylene cyanol, and 0.4% SDS) for 3 min and flash frozen in a dry ice/ethanol bath. Electrophoresis was carried out in 0.8% agarose in TAE buffer and stained post-run with ethidium bromide.

CLL patient cells [9] = experiment: Annexin V/Sytox Red viability of CLL patient cells versus healthy donor cells; type: cell-based, human; conditions: LC25 and LC50; PBSCs and mononuclear cells of healthy donors as comparison
[10] = Colorimetric alkylation assay; type: biochemical; conditions: absorbance of 4-NBP upon alkylation
Protocol: Alkylation was tested using 4-(4-Nitrobenzyl)pyridine (4-NBP) (Thomas, et al., 1992). Briefly, compound (200-450 μM) was incubated with 4-NBP (0.7% w/vol) in a buffer containing 85 mM triethanolamine (pH 7.2) and 43% acetone. Reactions were incubated at 37° C. for 30-120 min. Reactions were terminated by freezing in a dry ice/ethanol bath. To develop samples, […] ethyl acetate and 25 μl 5N NaOH were added followed by vortexing. Absorbance of organic ethyl acetate was read at 540 nm.

HeLa cells [11] = experiment: Analysis of mitochondrial superoxide levels (MitoSOX, flow cytometry); type: cell-based; conditions: 1 hour treatment
Protocol: HeLa cells were plated at 100,000 per well of a 24-well plate 24 hours prior to experiment and treated with Cbl or MPP-Cbl in OPTI-MEM (Invitrogen, Carlsbad) for 1 hour. Media was removed and cells were incubated with MitoSox (Invitrogen, Carlsbad) according to manufacturer's instructions. Cells were washed with PBS, trypsinized and analyzed via flow cytometry with FACSCanto (BD, Franklin Lakes).

HeLa cells [12] = experiment: Analysis of toxicity, CCK-8 viability, HeLa; type: cell-based
[13] = immunogold TEM, mouse liver mitochondria
Protocol: Mitochondria were isolated from fresh mouse liver as previously described^1. Functionality was confirmed using respirometry. The isolated organelles were used only when the levels of oxygen consumption in state III respiration (presence of ADP) were >4 fold greater than in state II respiration, indicating well-coupled mitochondria. Mitochondrial protein concentration was determined by BCA assay (Sigma). […] Cold PBS was added and mitochondria were pelleted by centrifugation. The pellet was fixed in 1% glutaraldehyde in PBS for 90 min at room temperature, washed with PBS, then fixed with 1% osmium tetroxide for 2 hr at 4° C. The pellets were dehydrated using graded ethanol, followed by stepwise infiltration with propylene oxide and Epon-Araldite resin. The pellets were cured in resin for 48 hr at 60° C. The blocks were sectioned to 60 nm and the sections adhered to nickel grids for 30 min at 60° C. The grids were floated on saturated aqueous sodium metaperiodate for an hour at room temperature, washed, then blocked with 1% BSA, and labeled with Anti-biotin (Jackson Immunolabs) followed by Protein A-gold (Aurion, 10 nm). The grids were rinsed with water and stained with 2% uranyl acetate for 5 minutes. To quantitate gold labeling, 200 gold particles (for more densely labeled samples) or 400 mitochondria (for less densely labeled samples) were counted for each counting event. […]

CLL patient cells [14] = experiment: Peptide uptake (flow cytometry); type: cell-based, human; conditions: 5 μM thiazole orange-labeled peptide, 15 min; CLL cells vs PBSCs and mononuclear cells
Protocol: CLL patient samples, PBSCs and healthy donor B cells were seeded at 200,000 cells per well in triplicate in a 24-well plate in Iscove's media. Cells were then incubated with 5 μM thiazole orange-labeled peptide for 15 min, washed with PBS and analyzed on FACSCanto (BD, Franklin Lakes) to determine relative intracellular peptide concentrations.

[15] = HL60, LC25 dose, greater with mt-Cbl relative to Cbl alone

Molecule: O=C(O)CCCc1ccc(N(CCCl)CCCl)cc1 [Cbl, chlorambucil]
- hemolysis [1]: minimal
- LC25 dose (HL60 cells [2]): 17 µM
- EC50 (HL60 cells [2]; Homo sapiens, HL-60): 34 µM
- CC50 (HL60 cells [2]; Homo sapiens, HL-60, read-out: LC50): 34 ± 6 µM
- induction of cell death (A2780 wildtype cells): able to induce cell death
- CC50 (M2 (OCI-M2) cells; OCI-M2, read-out: LC50): 311 ± 24 µM
- resistance to Cbl relative to rest of the cohort (M2 (OCI-M2) cells; OCI-M2 cells): approximately 10 fold
- p21 expression (HL60 cells [3]; HL60, LC25 dose): overexpressed
- DDIT3/GADD153 change in expression (HL60 cells [3]; HL60, LC25 dose): 5 fold
- damage of nuclear DNA [4]: primarily damaged nuclear DNA
- CC50 (LY17 cells): 55 ± 7 µM
- CC50 (K562 cells; Homo sapiens, K562, read-out: LC50): 306 ± 26 µM
- resistance to Cbl relative to rest of the cohort (K562 cells; K562 cells): approximately 10 fold
- toxicity ([5]; even at 100 μM): insignificant
- depolarization of mitochondrial membrane (HeLa cells [6]): not with Cbl
- CC50 (AML2 (OCI-AML2) cells): 28 ± 3 µM
- CC50 (U937 cells): 34 ± 5 µM
- damage of mitochondrial DNA [7]: very few mitochondrial lesions
- CC50 (DAUDI cells): 27 ± 7 µM
- activation of p38 or JNK pathways (HL60 cells [8]): activating p38
- DNA crosslink formation (pBR322DNA): concentration-dependent crosslink formation
- selective toxicity to CLL patient cells versus healthy donor cells (CLL patient cells [9]): more selectively toxic to CLL patient samples cells

Molecule: CC(=O)N[C@@H](CC1CCCCC1)C(=O)N[C@H](CCCNC(=N)N)C(=O)N[C@@H](CC1CCCCC1)C(=O)N[C@H](CCCNC(=N)N)C(=O)N[C@@H](CC1CCCCC1)C(=O)N[C@H](CCCNC(=N)N)C(=O)N[C@H](CCCCNC(=O)CCCc1ccc(N(CCCl)CCCl)cc1)C(N)=O [MPP-Cbl, Ac-FxrFxrFxrk-Cbl] (Ac-[Cha][dR][Cha][dR][Cha][dR][dK](Chlorambucil)-NH2)
- hemolysis [1]: nominal hemolysis levels; also recorded: minimal
- LC25 dose (HL60 cells [2]): 3 µM
- concentration inducing cell death (A2780 wildtype cells): 9 µM
- p21 expression (HL60 cells [3]; HL60, LC25 dose): overexpressed
- DDIT3/GADD153 change in expression (HL60 cells [3]; HL60, LC25 dose): no change
- GADD45G upregulation (HL60 cells [3]; [15]): 15 fold
- PPP1R15A/GADD34 upregulation (HL60 cells [3]; [15]): 4 fold
- Ligase III increase in expression (HL60 cells [3]; HL60, LC50 dose, 1 hr): this was detected
- damage of nuclear DNA [4]: minimal effect on the nuclear genome
- reduction of alkylating ability compared to Cbl alone [10]: approximately two fold
- concentration inducing cell death ([5]; value comparable to wild-type): 9 µM
- depolarization of mitochondrial membrane (HeLa cells [6]): noted upon MPP-Cbl treatment
- damage of mitochondrial DNA [7]: significant reduction of mitochondrial DNA amplification
- activation of p38 or JNK pathways (HL60 cells [8]): activating JNK
- increase of mitochondrial superoxide levels (HeLa cells [11]): noted upon MPP-Cbl treatment
- DNA crosslink formation (pBR322DNA): concentration-dependent crosslink formation
- selective toxicity to CLL patient cells versus healthy donor cells (CLL patient cells [9]): more selectively toxic to CLL patient samples cells
- increase in potency compared to Cbl (HeLa cells [12]; cell viability assay, 24 hours): 100 fold

Molecule: Ac-FxrFxrFxr [MPP]
- toxicity (HeLa cells [12]; concentration range tested): did not show appreciable toxicity

Molecule: Biotin-FxrFxrFxr [Biotin-MPP]
- localization within isolated mitochondria [13]: predominantly matrix localization

Molecule: TO-FxrFxrFxr [to-MPP]
- peptide uptake (CLL patient cells [14]): higher levels of peptide uptake in CLL cells
